Data taken from patent US8022205B2, “Pyrimidine derivatives as PI3K inhibitor and use thereof” (Chugai Seiyaku Kabushiki Kaisha, priority 2006, dated 2011).
Structures can show the parent of a compound that is named as a salt.

How the values were obtained:
human PI3K(p110α/p85α) = human PI3K(p110α/p85α) (Homo sapiens, UniProt P42336); assay: Measurement of PI3K inhibitory activity (AlphaScreen GST Detection Kit); format: biochemical; conditions: 10 μM ATP, 4 μM PI(4,5)P2, read-out: Enzyme inhibitory activity (IC50, μM) PI3K α
Experimental: The inhibitory activity of compounds of the present invention represented by formula (I) were measured with human PI3K(p110α/p85α) prepared in a baculovirus expression system using the AlphaScreen GST Detection Kit (Perkin Elmer, Inc.). A predetermined concentration of the compound dissolved in dimethylsulfoxide (DMSO) and PI3K were mixed in a 384-well assay plate and after allowing to stand for 20 minutes at room temperature, 4 μM PI(4,5)P2 (Echelon Corporation) and 10 μM ATP (5 mM Hepes, pH 7.5, 2.5 mM MgCl2) were added to initiate the reaction. After reacting for 15 minutes at 37° C., GST-GRP1 expressed and purified from Escherichia coli, Anti-GST Acceptor Beads (Perkin Elmer, Inc.), Streptavidin Donor Beads (Perkin Elmer, Inc.) and biotin-PI(3,4,5) P3 (Echelon Corporation) (10 mM Tris-HCl pH 7.4, 150 mM NaCl, 7.5 mM EDTA, 1 mM DTT, 0.1% Tween 20) were added, and after allowing to stand for 1 hour at room temperature, light at 520 to 620 nm emitted as a result of exciting with light at 680 nm was measured with the Envision measuring instrument (Perkin Elmer, Inc.).
Test Example 1 described above can be performed according to “Analytical Biochemistry, 2003, 313, 234-245; Alexander Gray et al”.

[1] = test system: human colon cancer cell line HCT116; assay: Cell proliferation inhibitory activity (Cell Counting Kit-8), colon cancer HCT116; format: cell-based; conditions: HCT-116, 96 h, HCT116, 4 days
Experimental: (§1) The cell proliferation inhibitory activity was measured for compounds of the present invention represented by formula (I). Cancer cell proliferation inhibitory activity was measured using the Cell Counting Kit-8 (Dojindo). 2000 cells each of human colon cancer cell line HCT116 purchased from the American Type Culture Collection (Virginia, USA) were seeded into each well of a 96-well culture plate followed by the addition of a predetermined concentration of the compounds and cultivating in a CO2environment for 4 days at 37° C. On the fourth day of cultivating, the Cell Counting Kit-8 solution was added and absorbance (measuring wavelength: 450 nm, reference wavelength: 615 nm) was measured in accordance with the protocol provided with the kit.

[2] = test system: human prostate cancer cell line PC3; assay: Cell proliferation inhibitory activity (Cell Counting Kit-8), prostate cancer PC3; format: cell-based; conditions: 96 h, PC3, 4 days
Experimental: as §1
(§2) Cancer cell proliferation inhibitory activity was also measured for human lung cancer cell line NCI-H460 and human prostate cancer cell line PC3 purchased from the American Type Culture Collection. 1000 and 3000 cells of NCI-H460 and PC3, respectively, were seeded into each well of a 96-well culture plate followed by testing in the same manner as the human colon cancer cell line and calculating the percentage of cell proliferation inhibition at 2.5 μM.

[3] = test system: human lung cancer cell line NCI-H460; assay: Cell proliferation inhibitory activity (Cell Counting Kit-8), lung cancer NCI-H460; format: cell-based; conditions: 96 h, NCI-H460, 4 days, read-out: Cell proliferation inhibitory activity (% Inhibition at 2.5 μM) Non-small cell lung cancer (NCI-H460)
Experimental: as §1, §2

Chain of human PI3K(p110α/p85α) (P42336 whole entry): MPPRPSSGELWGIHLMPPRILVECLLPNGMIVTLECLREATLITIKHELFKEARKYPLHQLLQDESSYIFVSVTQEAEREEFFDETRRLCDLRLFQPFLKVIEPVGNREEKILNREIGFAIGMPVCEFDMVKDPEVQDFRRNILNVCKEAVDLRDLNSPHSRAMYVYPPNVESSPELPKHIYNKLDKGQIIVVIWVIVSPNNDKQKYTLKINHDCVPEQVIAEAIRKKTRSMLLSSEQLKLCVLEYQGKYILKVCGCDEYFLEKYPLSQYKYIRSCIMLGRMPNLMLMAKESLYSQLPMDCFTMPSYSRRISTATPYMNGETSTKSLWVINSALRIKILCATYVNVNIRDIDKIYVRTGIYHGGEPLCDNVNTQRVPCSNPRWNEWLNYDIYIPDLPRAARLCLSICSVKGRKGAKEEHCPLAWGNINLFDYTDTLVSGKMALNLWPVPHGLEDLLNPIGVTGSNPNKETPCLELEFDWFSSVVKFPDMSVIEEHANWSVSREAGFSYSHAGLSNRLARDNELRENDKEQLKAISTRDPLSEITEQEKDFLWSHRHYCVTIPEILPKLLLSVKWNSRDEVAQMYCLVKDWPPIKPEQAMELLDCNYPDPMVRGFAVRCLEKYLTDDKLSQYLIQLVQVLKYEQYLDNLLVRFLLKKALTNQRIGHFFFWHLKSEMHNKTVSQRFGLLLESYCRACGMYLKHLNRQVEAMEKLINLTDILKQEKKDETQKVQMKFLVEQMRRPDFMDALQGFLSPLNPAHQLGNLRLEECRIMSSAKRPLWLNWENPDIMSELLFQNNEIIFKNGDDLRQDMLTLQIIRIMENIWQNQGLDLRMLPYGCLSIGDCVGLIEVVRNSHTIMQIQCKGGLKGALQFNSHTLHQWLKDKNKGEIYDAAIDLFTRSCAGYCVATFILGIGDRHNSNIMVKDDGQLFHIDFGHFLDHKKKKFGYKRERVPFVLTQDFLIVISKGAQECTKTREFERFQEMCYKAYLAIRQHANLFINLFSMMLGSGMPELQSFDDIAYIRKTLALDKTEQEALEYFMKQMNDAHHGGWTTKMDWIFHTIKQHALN
Chain of human PI3K(p110α/p85α) (P27986 whole entry partner): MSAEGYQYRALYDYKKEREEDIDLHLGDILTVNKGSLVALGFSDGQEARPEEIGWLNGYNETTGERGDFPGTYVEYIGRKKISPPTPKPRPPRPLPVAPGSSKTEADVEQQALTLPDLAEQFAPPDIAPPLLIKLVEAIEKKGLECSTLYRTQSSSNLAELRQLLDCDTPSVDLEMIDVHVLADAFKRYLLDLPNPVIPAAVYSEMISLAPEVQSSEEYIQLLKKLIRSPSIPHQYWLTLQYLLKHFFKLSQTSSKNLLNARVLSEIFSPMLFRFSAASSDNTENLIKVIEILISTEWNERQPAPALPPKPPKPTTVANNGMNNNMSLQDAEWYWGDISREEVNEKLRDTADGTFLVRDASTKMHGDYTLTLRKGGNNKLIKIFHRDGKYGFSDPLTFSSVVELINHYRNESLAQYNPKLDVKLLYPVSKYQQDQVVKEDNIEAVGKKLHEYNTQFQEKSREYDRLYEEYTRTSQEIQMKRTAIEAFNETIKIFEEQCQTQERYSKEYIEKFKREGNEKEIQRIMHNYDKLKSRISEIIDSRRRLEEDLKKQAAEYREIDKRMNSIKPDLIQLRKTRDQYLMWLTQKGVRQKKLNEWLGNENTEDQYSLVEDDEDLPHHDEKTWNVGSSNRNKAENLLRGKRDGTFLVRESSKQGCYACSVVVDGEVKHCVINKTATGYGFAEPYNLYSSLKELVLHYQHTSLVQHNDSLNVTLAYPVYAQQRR

SMILES	IC50 (human PI3K(p110α/p85α)) [µM]	inhibition at 2.5 µM [1] [%]	inhibition at 2.5 µM [2] [%]	inhibition at 2.5 µM [3] [%]
Nc1ncc(-c2nc(N3CCOCC3)nc3c2CCN3c2ccc(C(=O)NCc3ccncc3)cc2)cn1 [Example D-264, 4-[4-(2-Amino-pyrimidin-5-yl)-2-morpholin-4-yl-5,6-dihydro-pyrrolo[2,3-d]pyrimidin-7-yl]-N-pyridin-4-ylmethyl-benzamide]	0.007	63	72	82
Nc1ncc(-c2nc(N3CCOCC3)nc3c2CCN3c2ccc(C(=O)N3CCC(N4CCOCC4)CC3)cc2)cn1 [Example D-307, {4-[4-(2-Amino-pyrimidin-5-yl)-2-morpholin-4-yl-5,6-dihydro-pyrrolo[2,3-d]pyrimidin-7-yl]-phenyl}-(4-morpholin-4-yl-piperidin-1-yl)-methanone]	0.009	87	89	58
Cc1ccc(C(=O)N2CCOCC2)cc1N1CCc2c(-c3cnc(N)nc3)nc(N3CCOCC3)nc21 [Example D-25, {3-[4-(2-Amino-pyrimidin-5-yl)-2-morpholin-4-yl-5,6-dihydro-pyrrolo[2,3-d]pyrimidin-7-yl]-4-methyl-phenyl}-morpholin-4-yl-methanone]	0.22	61	55	57
Nc1ccc(-c2nc(N3CCOCC3)nc3c2CCN3c2ccncc2)cn1 [Example B-03, 5-(2-Morpholin-4-yl-7-pyridin-4-yl-6,7-dihydro-5H-pyrrolo[2,3-d]pyrimidin-4-yl)-pyridin-2-ylamine]	0.24	100	95	97
Cc1cc(C(=O)N2CCOCC2)ccc1N1CCc2c(-c3cnc(N)nc3)nc(N3CCOCC3)nc21 [Example D-137, {4-[4-(2-Amino-pyrimidin-5-yl)-2-morpholin-4-yl-5,6-dihydro-pyrrolo[2,3-d]pyrimidin-7-yl]-3-methyl-phenyl}-morpholin-4-yl-methanone]	0.092	60	71	52
CCN1CCN(c2ccc(C)c(NC(=S)N3CCc4c(-c5cnc(N)nc5)nc(N5CCOCC5)nc43)c2)CC1 [Example D-290, 4-(2-Amino-pyrimidin-5-yl)-2-morpholin-4-yl-5,6-dihydro-pyrrolo[2,3-d]pyrimidine-7-carbothioic acid [5-(4-ethyl-piperazin-1-yl)-2-methyl-phenyl]-amide]	0.009	99	99	18
c1cc(N2CCc3c(-c4ccc5[nH]cnc5c4)nc(N4CCOCC4)nc32)ccn1 [Example B-22, 4-(1H-benzimidazol-5-yl)-2-morpholin-4-yl-7-pyridin-4-yl-6,7-dihydro-5H-pyrrolo[2,3-d]pyrimidine]	0.3	71	22	72
Nc1ncc(-c2nc(N3CCOCC3)nc3c2CCN3c2ccc(C(=O)N3CCN(c4ccncc4)CC3)cc2F)cn1 [Example D-286, {4-[4-(2-Amino-pyrimidin-5-yl)-2-morpholin-4-yl-5,6-dihydro-pyrrolo[2,3-d]pyrimidin-7-yl]-3-fluoro-phenyl}-(4-pyridin-4-yl-piperazin-1-yl)-methanone]	0.008	94	89	97
CCN1CCN(c2ccc(NC(=O)N3CCc4c(-c5cnc(N)nc5)nc(N5CCOCC5)nc43)c(C)c2)CC1 [Example D-242, 4-(2-Amino-pyrimidin-5-yl)-2-morpholin-4-yl-5,6-dihydro-pyrrolo[2,3-d]pyrimidine-7-carboxylic acid [4-(4-ethyl-piperazin-1-yl)-2-methyl-phenyl]-amide]	0.01	99	100	55
CN(Cc1cccnc1)C(=O)c1ccc(N2CCc3c(-c4cnc(N)nc4)nc(N4CCOCC4)nc32)c(F)c1 [Example D-318, 4-[4-(2-Amino-pyrimidin-5-yl)-2-morpholin-4-yl-5,6-dihydro-pyrrolo[2,3-d]pyrimidin-7-yl]-3-fluoro-N-methyl-N-pyridin-3-ylmethyl-benzamide]	0.007	96	94	89
Nc1ncc(-c2nc(N3CCOCC3)nc3c2CCN3c2cccnc2)cn1 [Example B-02, 5-(2-Morpholin-4-yl-7-pyridin-3-yl-6,7-dihydro-5H-pyrrolo[2,3-d]pyrimidin-4-yl)-pyrimidin-2-ylamine]	0.03	87	96	95
CN1CCN(Cc2ccc(N3CCc4c(-c5cnc(N)nc5)nc(N5CCOCC5)nc43)cc2)CC1 [Example D-26, 5-{7-[4-(4-methyl-piperazin-1-ylmethyl)-phenyl]-2-morpholin-4-yl-6,7-dihydro-5H-pyrrolo[2,3-d]pyrimidin-4-yl}-pyrimidin-2-ylamine]	0.048	87	82	84
CCN1CCN(C(=O)c2ccc(NC(=O)N3CCc4c(-c5cnc(N)nc5)nc(N5CCOCC5)nc43)cc2)CC1 [Example D-103, 4-(2-Amino-pyrimidin-5-yl)-2-morpholin-4-yl-5,6-dihydro-pyrrolo[2,3-d]pyrimidine-7-carboxylic acid [4-(4-ethyl-piperazine-1-carbonyl)-phenyl]-amide]	0.006	74	80	92
CS(=O)(=O)Nc1cccc(N2CCc3c(-c4cccc(O)c4)nc(N4CCOCC4)nc32)c1 [Example A-48, N-{3-[4-(3-hydroxy-phenyl)-2-morpholin-4-yl-5,6-dihydro-pyrrolo[2,3-d]pyrimidin-7-yl]-phenyl}-methane sulfonamide trifluoroacetic acid salt]	0.02	55	62	67
Nc1ncc(-c2nc(N3CCOCC3)nc3c2CCN3c2ccc(C(=O)N3CCOCC3)cc2F)cn1 [Example D-22, {4-[4-(2-Amino-pyrimidin-5-yl)-2-morpholin-4-yl-5,6-dihydro-pyrrolo[2,3-d]pyrimidin-7-yl]-3-fluoro-phenyl}-morpholin-4-yl-methanone]	0.042	82	79	83
CN1CCN(C(=O)c2ccc(NC(=S)N3CCc4c(-c5cnc(N)nc5)nc(N5CCOCC5)nc43)cc2)CC1 [Example D-231, 4-(2-Amino-pyrimidin-5-yl)-2-morpholin-4-yl-5,6-dihydro-pyrrolo[2,3-d]pyrimidine-7-carbothioic acid [4-(4-methyl-piperazine-1-carbonyl)-phenyl]-amide]	0.011	33	37	71
Cc1ccc(N2CCOCC2)cc1NC(=O)N1CCc2c(-c3cnc(N)nc3)nc(N3CCOCC3)nc21 [Example D-237, 4-(2-Amino-pyrimidin-5-yl)-2-morpholin-4-yl-5,6-dihydro-pyrrolo[2,3-d]pyrimidine-7-carboxylic acid (2-methyl-5-morpholin-4-yl-phenyl)-amide]	0.005	95	97	84
Nc1ncc(-c2nc(N3CCOCC3)nc3c2CCN3c2ccc(CN3CCN(CCCCF)CC3)cc2)cn1 [Example D-330, 5-(7-{4-[4-(4-fluorobutyl)-piperazin-1-ylmethyl]-phenyl}-2-morpholin-4-yl-6,7-dihydro-5H-pyrrolo[2,3-d]pyrimidin-4-yl)-pyrimidin-2-ylamine]		25	0	-13
CS(=O)(=O)N1CCc2c(-c3cnc(N)nc3)nc(N3CCOCC3)nc21 [Example D-02, 5-(7-Methanesulfonyl-2-morpholin-4-yl-6,7-dihydro-5H-pyrrolo[2,3-d]pyrimidin-4-yl)-pyrimidin-2-ylamine]		81	87	83
